Results: PubChem BioAssay (NCI)
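48-hour exposure; five concentrations; linearly interpolated endpoints. The concentration for 50% growth inhibition is given as GI50. TGI: concentration producing complete growth inhibition.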

Columns and labels:
Test in all cases: NCI tumour cell line growth inhibition, 48 h
[1] = tested on: A498 renal
[2] = tested on: A549 NSCLC
[3] = tested on: ACHN renal
[4] = tested on: BT-549 breast
[5] = tested on: CAKI-1 renal
[6] = tested on: CCRF-CEM leukemia
[7] = tested on: COLO 205 colon
[8] = tested on: DU-145 prostate
[9] = tested on: EKVX NSCLC
[10] = tested on: HCC-2998 colon
[11] = tested on: HCT-116 colon
[12] = tested on: HCT-15 colon
[13] = tested on: HL-60(TB) leukemia
[14] = tested on: HOP-62 NSCLC
[15] = tested on: HOP-92 NSCLC
[16] = tested on: HS 578T breast
[17] = tested on: HT29 colon
[18] = tested on: IGROV1 ovarian
[19] = tested on: K-562 leukemia
[20] = tested on: KM12 colon
[21] = tested on: LOX IMVI melanoma
[22] = tested on: M14 melanoma
[23] = tested on: MALME-3M melanoma
[24] = tested on: MCF7 breast
[25] = tested on: MDA-MB-231 breast
[26] = tested on: MDA-MB-435
[27] = tested on: MOLT-4 leukemia
[28] = tested on: NCI-H226 lung
[29] = tested on: NCI-H23 lung
[30] = tested on: NCI-H460 lung
[31] = tested on: NCI-H522 lung
[32] = tested on: NCI/ADR-RES ovarian
[33] = tested on: OVCAR-3 ovarian
[34] = tested on: OVCAR-5 ovarian
[35] = tested on: OVCAR-8 ovarian
[36] = tested on: PC-3 prostate
[37] = tested on: RPMI-8226 leukemia
[38] = tested on: RXF 393 renal
[39] = tested on: SF-268 CNS
[40] = tested on: SF-295 CNS
[41] = tested on: SF-539 CNS
[42] = tested on: SK-MEL-2 melanoma
[43] = tested on: SK-MEL-28 melanoma
[44] = tested on: SK-MEL-5 melanoma
[45] = tested on: SN12C renal
[46] = tested on: SNB-19 CNS
[47] = tested on: SNB-75 CNS
[48] = tested on: SR leukemia
[49] = tested on: SW-620 colon
[50] = tested on: T-47D breast
[51] = tested on: TK-10 renal
[52] = tested on: U251 CNS
[53] = tested on: UACC-257 melanoma
[54] = tested on: UACC-62 melanoma
[55] = tested on: UO-31 renal

Work on O=C(N/N=C\c1ccc(N(CCCl)CCCl)cc1)c1cccnc1 yielded a GI50 [1] of 42.2 µM, a TGI [1] of over 100 µM and a GI50 [2] of 37.5 µM. For the same compound, the TGI [2] was over 100 µM, the GI50 [3] was 31.6 µM and the TGI [3] was over 100 µM. It also gave a GI50 [4] of 19.7 µM, a TGI [4] of over 100 µM and a GI50 [5] of 8.53 µM. It also gave a TGI [5] of over 100 µM, a GI50 [6] of 5.91 µM and a TGI [6] of over 100 µM. It also gave a GI50 [7] of over 100 µM, a TGI [7] of over 100 µM and a GI50 [8] of 11.4 µM. For the same compound, the TGI [8] was over 100 µM, the GI50 [9] was over 100 µM and the TGI [9] was over 100 µM. It also gave a GI50 [10] of 55.5 µM, a TGI [10] of over 100 µM and a GI50 [11] of 51 µM. The TGI [11] was over 100 µM, the GI50 [12] was 37.1 µM and the TGI [12] was over 100 µM. It also gave a GI50 [13] of 3.39 µM, a TGI [13] of 46.9 µM and a GI50 [14] of 31.5 µM. For the same compound, the TGI [14] was over 100 µM, the GI50 [15] was 30.6 µM and the TGI [15] was over 100 µM. For the same compound, the GI50 [16] was 65.5 µM, the TGI [16] was over 100 µM and the GI50 [17] was over 100 µM. For the same compound, the TGI [17] was over 100 µM, the GI50 [18] was over 100 µM and the TGI [18] was over 100 µM. It also gave a GI50 [19] of 32.2 µM, a TGI [19] of over 100 µM and a GI50 [20] of 61.9 µM. It also gave a TGI [20] of over 100 µM, a GI50 [21] of 21.3 µM and a TGI [21] of over 100 µM. For the same compound, the GI50 [22] was 60.2 µM, the TGI [22] was over 100 µM and the GI50 [23] was 55 µM. It also gave a TGI [23] of over 100 µM, a GI50 [24] of 20.9 µM and a TGI [24] of over 100 µM. For the same compound, the GI50 [25] was 24.8 µM, the TGI [25] was over 100 µM and the GI50 [26] was 33.4 µM. It also gave a TGI [26] of over 100 µM, a GI50 [27] of 6.95 µM and a TGI [27] of over 100 µM. The GI50 [28] was 2.13 µM, the TGI [28] was 11.4 µM and the GI50 [29] was 15.8 µM. It also gave a TGI [29] of over 100 µM, a GI50 [30] of 3.83 µM and a TGI [30] of over 100 µM. It also gave a GI50 [31] of 29 µM, a TGI [31] of over 100 µM and a GI50 [32] of 28.3 µM. For the same compound, the TGI [32] was over 100 µM, the GI50 [33] was 30.5 µM and the TGI [33] was over 100 µM. For the same compound, the GI50 [34] was over 100 µM, the TGI [34] was over 100 µM and the GI50 [35] was 39.8 µM. It also gave a TGI [35] of over 100 µM, a GI50 [36] of 65.4 µM and a TGI [36] of over 100 µM. The GI50 [37] was 44.8 µM, the TGI [37] was over 100 µM and the GI50 [38] was 19.7 µM. The TGI [38] was 85.7 µM, the GI50 [39] was 27 µM and the TGI [39] was over 100 µM. It also gave a GI50 [40] of 6.31 µM, a TGI [40] of 73.2 µM and a GI50 [41] of 29.3 µM. It also gave a TGI [41] of over 100 µM, a GI50 [42] of over 100 µM and a TGI [42] of over 100 µM. For the same compound, the GI50 [43] was over 100 µM, the TGI [43] was over 100 µM and the GI50 [44] was 36.3 µM. It also gave a TGI [44] of over 100 µM, a GI50 [45] of 20.6 µM and a TGI [45] of over 100 µM. For the same compound, the GI50 [46] was 45 µM, the TGI [46] was over 100 µM and the GI50 [47] was 33.7 µM. It also gave a TGI [47] of over 100 µM, a GI50 [48] of 3.1 µM and a TGI [48] of over 100 µM. It also gave a GI50 [49] of over 100 µM, a TGI [49] of over 100 µM and a GI50 [50] of 26.5 µM. The TGI [50] was over 100 µM, the GI50 [51] was 33.4 µM and the TGI [51] was over 100 µM. For the same compound, the GI50 [52] was over 100 µM, the TGI [52] was over 100 µM and the GI50 [53] was 60.6 µM. The TGI [53] was over 100 µM, the GI50 [54] was 9.1 µM and the TGI [54] was over 100 µM. For the same compound, the GI50 [55] was 14.1 µM and the TGI [55] was over 100 µM.
